For series [1], the system named is Rat2 fibroblasts transformed with v-Src/Hu c-Src fusion gene. As to the kind of experiment: Anchorage independent Src-transformed fibroblast proliferation. It is filed as cell-based. The note with it: Rattus norvegicus, 120 h, suspension growth, MTS on Day 5, read-out: Src TF prolif IC50. How it is done:
Anchorage Independent Src-transformed Fibroblast Proliferation Test Procedure: Rat2 fibroblasts stably transformed with a plasmid containing a CMV promotor controlled v-Src/Hu c-Src fusion gene in which the catalytic domain of human c-Src is inserted in place of the v-Src catalytic domain in the v-Src gene are used for the measurement of src dependent suspension growth. Ultra-low cluster plates (Costar #3474) are seeded with 10,000 cells per well on Day 1.

The target in a further series is T1, p60c-src (Homo sapiens, UniProt P12931).
T1 construct: purchased Upstate Biotechnologies
T1 sequence (P12931 whole entry): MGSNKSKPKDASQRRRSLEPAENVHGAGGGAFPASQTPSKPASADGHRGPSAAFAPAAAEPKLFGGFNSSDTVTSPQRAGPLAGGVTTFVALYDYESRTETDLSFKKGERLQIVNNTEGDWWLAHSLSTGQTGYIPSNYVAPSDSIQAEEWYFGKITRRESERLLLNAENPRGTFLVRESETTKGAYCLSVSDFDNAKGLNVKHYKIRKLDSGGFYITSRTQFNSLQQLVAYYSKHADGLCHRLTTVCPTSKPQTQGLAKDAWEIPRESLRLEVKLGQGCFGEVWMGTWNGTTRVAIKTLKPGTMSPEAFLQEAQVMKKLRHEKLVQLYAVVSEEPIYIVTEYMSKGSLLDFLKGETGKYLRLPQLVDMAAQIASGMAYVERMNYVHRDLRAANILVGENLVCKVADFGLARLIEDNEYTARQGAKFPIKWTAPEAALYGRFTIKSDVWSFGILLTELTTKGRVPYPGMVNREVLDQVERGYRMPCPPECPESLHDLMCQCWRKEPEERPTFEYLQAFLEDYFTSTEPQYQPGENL
As to the kind of experiment: Src kinase test procedure (ELISA). It is filed as biochemical. The note with it: cdc2 substrate peptide, (a) = average of two runs. The protocol: Src Kinase Test Procedure
Inhibitors of p60^c-src (partially purified preparation purchased from Upstate Biotechnologies) tyrosine kinase activity are analyzed in an Elisa format. The Boehringer Mannheim Tyrosine Kinase Assay Kit (Catalog number 1-534505) with a cdc2 substrate peptide containing Tyr15 is used for the assay. HRP-conjugated anti-phosphotyrosine is used to detect phosphorylated peptide via a color reaction. Conditions recommended by the manufacturer are employed.
Reaction conditions: Five microliter aliquots of each compound prepared fresh at the time of the assay are added as a solution in 10 mM HEPES pH 7.5, 10% DMSO to the reaction well. Thirty-five microliters of reaction mix containing Src, buffer and peptide/bovine serum albumin mix are added to the compound wells and incubated at 30° C. for 10 minutes (reaction buffer: 50 mM Tris HCl pH 7.5, 10 mM MgCl2, 0.1 mM EGTA, 0.5 mM Na3VO4). The reaction is started by addition of 10 microliters of ATP, incubated at 30° C. for 1 hour, and stopped by addition of 20 microliters of 0.5M EDTA. The reaction mixture with the phosphorylated peptide is then transferred to a streptavidin-coated microtiter plate (provided in the kit) and allowed to bind for 20 minutes. Unbound peptide and reaction mixture is decanted and the plate is washed with PBS six times. Horseradish peroxidase-conjugated phosphotyrosine antibody supplied in the kit is incubated with the plate for one hour, then decanted. The plate is again ished with PBS six times. Substrate (provided in the kit) is added and absorbance at 405 nm is measured.
Activity is determined as % inhibition as calculated by the formula: (1−Abs/Abs(max))×100=% inhibition. Where multiple concentrations of the test agent are used, an IC50 (concentration which gives 50% inhibition) could be determined.
Background: ELISA stands for enzyme-linked immunosorbent assay.

In a further series the test system is HT-29 cells. As to the kind of experiment: HT-29 cell proliferation on plastic (MTS). The class given is cell-based. The settings on record: Homo sapiens; HT-29 cells on plastic, MTS on day five; read-out: HT-29 prolif IC50. How it is done:
Cell Proliferation Test Procedure for Inhibitors of Src Kinase
HT-29 cells: Compound effectiveness at inhibiting cell proliferation on plastic is performed in a 96-well format by plating 5000 cells per well in appropriate medium on day one, followed by compound addition on day 2 in serial two-fold dilutions. On day five, compound is washed away and medium containing MTS reagent (Promega) is added. Relative cell number is determined by reading the absorbance at 490 nm of a dye produced by an NAD-dependent cellular enzymatic reaction.

Series [2] concerns the target T2, Raf and/or Mek kinase (human c-Raf, GST-MEK1) (Homo sapiens, UniProt P04049+Q02750).
T2 construct: Sf9 insect cell lysate containing full length 6his-tagged recombinant human c-Raf; 6His; host or cells: Sf9 insect cells (c-Raf, used as lysate); E. coli (MEK1-GST, GST-MAPK)
As to the kind of experiment: Raf/Mek kinase cascade assay. The class given is biochemical. The note with it: c-Raf dependent activation of GST-MEK and GST-MAPK, phospho-MAPK ELISA; (a)/(b)/(c) = average of two/three/four runs. The protocol:
Raf/Mek Kinase Cascade Assay Procedure
(Specific Activity: ˜200 U/ml). Human Non-active Mek-1-GST and human GST-MAP kinase (recombinant proteins produced in E. coli).
Stock Solutions Raf/Mek Cascade Assay:
• 1. Assay Dilution Buffer (ADB): 20 mM MOPS, pH 7.2, 25 mM β-glycerol phosphate, 5 mM EGTA, 1 mM sodium orthovanadate, 1 mM dithiothreitol; • 2. Magnesium/ATP Cocktail: 500 μM cold ATP and 75 mM magnesium chloride in ADB; • 3. Active Kinase: Human Active c-Raf: Use at 0.4 U per assay point; • 4. Non-active GST-MEK1: Use at 0.1 μg per assay point; and • 5. Non-active GST-p42 MAP Kinase: Use at 1.0 μg per assay point. Stock Solutions ELISA: • 1. TBST-Tris (50 mM, pH 7.5), NaCl (150 mM), Tween-20 (0.05%); • 2. Superblock (Pierce); • 3. Anti-GST Ab (Pharmacia); • 4. Anti-Phospho MAPK (Sigma); and • 5. Anti-Mouse Ab/Europium conjugate (Wallac). Assay Procedure: First Stage: c-Raf Dependent Activation of GST-MEK and GST-MAPK • 1. Add […] of ADB per assay (i.e. per well of a 96 well plate); • 2. Add 10 ml of 0.5 mM cold ATP and 75 mM magnesium chloride in ADB; • 3. Add 2 ml of c-Raf (0.4 U/assay), in conjunction with 1.6 ml non-active MEK1 (0.4 […]/assay); • 4. Add 4 ml of non-active GST-p42 MAP Kinase (1.0 mg/assay); • 5. Incubate for 60 minutes at 30° C. in a shaking incubator; • 6. Transfer this mixture to an anti-GST Ab coated 96 well plate (Nunc Immunosorb plates coated o/n with a-GST, then blocked with Pierce Superblock); • 7. Incubate for 60 minutes at 30° C. in a shaking incubator; • 8. Wash 3× with TBST, add Anti-Phospho MAPK (Sigma) (1:3000); • 9. Incubate for 60 minutes at 30° C. in a shaking incubator; • 10. Wash 3× with TBST, add Anti-Mouse Ab/Europium conjugate (Wallac) (1:500); • 11. Incubate for 60 minutes at 30° C. in a shaking incubator; • 12. Wash 3× with TBST, Read plates in Wallac Victor model Plate Reader; and • 13. Collect data analyze in Excel for single point and IC50 determinations.
Single point assay—% inhibition at […] (% Inhibition=1−cpd·treated sample/untreated control). IC50 determinations—done on compounds from single point assays with >80% inhibition. Typically, the Raf/Mek assay is run at compound concentrations from 10 μM to 1 nM in half log dilutions. (% inhibition is determined for each compound concentration). The results obtained measure Raf and/or Mek kinase inhibition, and for representative compounds of this invention are listed in Table 1.

T2 sequence (P04049 whole entry): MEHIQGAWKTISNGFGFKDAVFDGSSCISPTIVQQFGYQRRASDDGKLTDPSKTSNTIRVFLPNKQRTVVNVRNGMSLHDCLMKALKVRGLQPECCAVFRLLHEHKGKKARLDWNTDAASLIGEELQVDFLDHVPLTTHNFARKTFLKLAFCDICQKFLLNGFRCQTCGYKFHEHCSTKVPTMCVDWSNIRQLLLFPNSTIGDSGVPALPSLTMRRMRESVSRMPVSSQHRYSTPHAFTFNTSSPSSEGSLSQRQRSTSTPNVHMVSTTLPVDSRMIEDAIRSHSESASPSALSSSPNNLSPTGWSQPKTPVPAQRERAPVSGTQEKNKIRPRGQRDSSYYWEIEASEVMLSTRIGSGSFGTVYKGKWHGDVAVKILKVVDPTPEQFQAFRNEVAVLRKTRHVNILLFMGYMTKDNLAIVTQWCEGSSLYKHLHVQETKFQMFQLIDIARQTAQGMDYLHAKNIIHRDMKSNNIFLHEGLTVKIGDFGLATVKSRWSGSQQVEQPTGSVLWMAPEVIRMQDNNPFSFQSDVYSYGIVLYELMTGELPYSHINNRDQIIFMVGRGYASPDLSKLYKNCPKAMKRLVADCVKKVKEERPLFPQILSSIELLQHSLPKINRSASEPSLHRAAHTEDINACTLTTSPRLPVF
T2 sequence (Q02750 whole entry): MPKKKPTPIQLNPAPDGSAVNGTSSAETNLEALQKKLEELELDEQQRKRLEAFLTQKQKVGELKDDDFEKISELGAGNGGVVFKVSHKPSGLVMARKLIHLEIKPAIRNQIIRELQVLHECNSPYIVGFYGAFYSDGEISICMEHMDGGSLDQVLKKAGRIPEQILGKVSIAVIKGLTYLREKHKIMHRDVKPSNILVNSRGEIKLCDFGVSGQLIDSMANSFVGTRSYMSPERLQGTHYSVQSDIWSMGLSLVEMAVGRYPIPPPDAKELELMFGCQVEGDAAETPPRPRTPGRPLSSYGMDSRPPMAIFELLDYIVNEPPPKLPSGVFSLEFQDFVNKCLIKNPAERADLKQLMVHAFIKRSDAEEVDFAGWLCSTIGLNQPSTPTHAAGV

One may read the IC50 as the concentration needed to halve the response being measured. As a reminder, the melting point is the temperature, or range, at which the solid turns liquid. On to `COc1cc(Nc2c(C#N)cnc3cc(N4CCC(N5CCCC5)CC4)c(OC)cc23)c(Cl)cc1Cl` [Example 31, 4-[(2,4-dichloro-5-methoxyphenyl)amino]-6-methoxy-7-(4-pyrrolidin-1-ylpiperidin-1-yl)quinoline-3-carbonitrile], for which the melting point fell in the range of 225 to 227 °C. Further, in series [1], the IC50 came out at 2400 nM.

Compound `COc1cc(Nc2c(C#N)cnc3cc(OCCCN4CCC(N5CCCC5)CC4)c(OC)cc23)c(Cl)cc1Cl` [Example 34] gave a melting point of 108 to 112 °C. Moreover, on p60c-src, the IC50 was found to be 0.55 nM. Also, the IC50 in the series with HT-29 cells stood at 2600 nM. In addition, in series [2], the IC50 turned out to be 250 nM. Further, the IC50 in series [1] was 466 nM.

Regarding `COc1cc(Nc2c(C#N)cnc3cc(OCCCN4CCC(N5CCCCC5)CC4)c(OC)cc23)c(Cl)cc1Cl` [Example 35, 7-(3-[1,4′-Bipiperidin]-1′-ylpropoxy)-4-[(2,4-dichloro-5-methoxyphenyl)amino]-6-methoxy-3-quinolinecarbonitrile], the melting point is 130 to 132 °C. The same compound returned an IC50 at p60c-src of 1 nM. Besides, the IC50 in the series with HT-29 cells was 2700 nM. The concentration for half-maximal inhibition (IC50) in series [1] was determined as 140 nM.

The values above are taken from patent publication US7767671B2, “3-Quinolinecarbonitrile protein kinase inhibitors” (Wyeth, priority 2004, dated 2010).
